Broadly, the IC50 is the concentration needed to halve the response being measured.

For the first experiment, the target named is KRAS G12C and cRAF (Ras-binding domain) interaction (Homo sapiens (Human), UniProt P01116, C118S/C51S/C80L/G12C). Description: Inhibition of KRAS G12C and cRAF binding (AlphaScreen). The settings on record: GMPPNP-loaded KRAS G12C, 19-20 hours incubation with compound; read-out: IC50 (Inhibition of KRAS G12C and cRAF Binding). Summed up: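 IC50 values come from 4-parameter nonlinear regression of AlphaScreen signal (680 nm excitation, 570 nm emission). Compound plates sat 19-20 h at room temperature before RBD and donor/acceptor beads were added in Hepes pH 7.4 buffer with 150 mM NaCl, 5 mM MgCl2, 2% DMSO for 60-90 min; biotin-AviTag-GST replaced RBD to flag assay-technology interferers.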
Chain of KRAS G12C and cRAF (Ras-binding domain) interaction (P01116 other isoform, or with tags, fused parts or gaps G12C/C51S/C80L/C118S): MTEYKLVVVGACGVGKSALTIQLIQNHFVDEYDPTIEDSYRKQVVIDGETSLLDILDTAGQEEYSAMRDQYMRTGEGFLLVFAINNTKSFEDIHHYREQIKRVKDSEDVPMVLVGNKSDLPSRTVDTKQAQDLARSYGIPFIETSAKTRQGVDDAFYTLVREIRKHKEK
On the technique in general: Alpha assays give light when donor and acceptor beads are brought close together.
On to `C=CC(=O)C1[C@H]2CCN(c3nc(OC[C@@H]4CCCN4C)nc4c3CCN(c3cccc5cccc(Cl)c35)C4)C[C@@H]12` (stereo in doubt) [Example 43], for which the IC50 lay within 0.01 to 0.1 µM.
Still for that read-out and setting: as for `COC(=O)/C=C/C(=O)NCCN(C)c1nc(OC[C@@H]2CCCN2C)nc2c1CCN(c1cccc3ccc(F)c(Cl)c13)C2` [Example 1, methyl(S,E)-4-((2-((7-(8-chloro-7-fluoronaphthalen-1-yl)-2-((1-methylpyrrolidin-2-yl)methoxy)-5,6,7,8-tetrahydropyrido[3,4-d]pyrimidin-4-yl)(methyl)amino)ethyl)amino)-4-oxobut-2-enoate], the figure is 0.01 to 0.1 µM.
The same measure, in the same setting: under `COC(=O)/C=C/C(=O)N1CCC(N(C)c2nc(OC[C@@H]3CCCN3C)nc3c2CCN(c2cccc4ccc(F)c(Cl)c24)C3)C1` (stereo partly drawn) [Example 2, methyl(E)-4-(3-((7-(8-chloro-7-fluoronaphthalen-1-yl)-2-(((S)-1-methylpyrrolidin-2-yl)methoxy)-5,6,7,8-tetrahydropyrido[3,4-d]pyrimidin-4-yl)(methyl)amino)pyrrolidin-1-yl)-4-oxobut-2-enoate] stands 0.01 to 0.1 µM; under `COC(=O)/C=C/C(=O)N1CC[C@@H](N(C)c2nc(OC[C@@H]3CCCN3C)nc3c2CCN(c2cccc4ccc(F)c(Cl)c24)C3)C1` [Example 3, methyl(E)-4-((R)-3-((7-(8-chloro-7-fluoronaphthalen-1-yl)-2-(((S)-1-methylpyrrolidin-2-yl)methoxy)-5,6,7,8-tetrahydropyrido[3,4-d]pyrimidin-4-yl)(methyl)amino)pyrrolidin-1-yl)-4-oxobut-2-enoate], 0.01 to 0.1 µM; under `COC(=O)/C=C/C(=O)N1C[C@@H](N(C)c2nc(OC[C@@H]3CCCN3C)nc3c2CCN(c2cccc4cccc(Cl)c24)C3)C[C@@H]1C` [Example 4, methyl(E)-4-((2S,4S)-4-((7-(8-chloronaphthalen-1-yl)-2-(((S)-1-methylpyrrolidin-2-yl)methoxy)-5,6,7,8-tetrahydropyrido[3,4-d]pyrimidin-4-yl)(methyl)amino)-2-methylpyrrolidin-1-yl)-4-oxobut-2-enoate], > 0.5 µM.

The same experiment, now with this note: additional exemplary compounds; KRAS G12C and cRAF binding; read-out: RAF1 RBD IC50.
As to `C=CC(=O)CCN(C)c1nc(OC[C@@H]2CCCN2C)nc2c1CCN(c1cccc3cccc(Cl)c13)C2`, the IC50 is 0.01 to 0.1 µM.
In the case of `CN(C)C(=O)/C=C/C(=O)N1CC(CN(C)c2nc(OCC34CCCN3CCC4)nc3c(F)c(-c4cccc5cccc(Cl)c45)ncc23)C1`, the IC50 was > 0.5 µM.
Same read-out and setting: as for `C=CC(=O)CCCN(C)c1nc(OC[C@@H]2CCCN2C)nc2c1CCN(c1cccc3cccc(Cl)c13)C2`, the figure is < 0.01 µM; as for `C=CS(=O)(=O)C1CCC(N(C)c2nc(OCC34CCCN3CCC4)nc3c2CCN(c2cccc4cccc(Cl)c24)C3)C1` (stereo not shown), 0.01 to 0.1 µM.
Still for that read-out and setting: as for `C=CC(=O)CCOc1nc(OC[C@@H]2CCCN2C)nc2c1CCN(c1cccc3ccccc13)C2`, the figure is > 0.5 µM; as for `CN(C)C/C=C/S(=O)(=O)CCN(C)c1nc(OCC23CCCN2CCC3)nc2c1CCN(c1cccc3ccc(F)c(Cl)c13)C2`, < 0.01 µM; as for `C=CC(=O)COc1nc(OC[C@@H]2CCCN2C)nc2c1CCN(c1cccc3ccccc13)C2`, > 0.5 µM.
Still for that read-out and setting: as for `CN(C)C/C=C/C(=O)N1CC(CN(C)c2nc(OCC34CCCN3CCC4)nc3c(F)c(-c4cccc5cccc(Cl)c45)ncc23)C1`, the figure is 0.01 to 0.1 µM; as for `C=CC(=O)CCNc1nc(OC[C@@H]2CCCN2C)nc2c1CCN(c1cccc3ccccc13)C2`, > 0.5 µM; as for `CCN(C/C=C/S(=O)(=O)CCN(C)c1nc(OCC23CCCN2CCC3)nc2c(F)c(-c3cccc4cccc(Cl)c34)ncc12)CCOC`, 0.01 to 0.1 µM.
Turning to `C=CC(=O)[C@@H]1CC[C@H]1Nc1nc(OC[C@@H]2CCCN2C)nc2c1CCN(c1cccc3ccccc13)C2`, the IC50 was > 0.5 µM.
Still for that read-out and setting: as for `C=CC(=O)N1CCC[C@@H](N(C)c2nc(OC[C@@]34CCCN3C[C@H](F)C4)nc3c2CCN(c2cccc4cccc(Cl)c24)C3)C1`, the figure is > 0.5 µM; as for `C#Cc1c(F)ccc2cccc(-c3ncc4c(N(C)[C@H]5CCN(C(=O)C=C)C5)nc(OC[C@@]56CCCN5C[C@H](F)C6)nc4c3F)c12`, 0.1 to 0.5 µM; as for `CN1CCC[C@H]1COc1nc(N(C)[C@@H]2CCN(C(=O)/C=C/CN3CC(F)(F)C3)C2)c2cnc(-c3cccc4cccc(Cl)c34)c(F)c2n1`, 0.1 to 0.5 µM.
The same measure, in the same setting: under `C=CC(=O)N1C[C@H](C)C[C@@H](Nc2nc(OC[C@@]34CCCN3C[C@H](F)C4)nc3c(F)c(-c4cccc5cccc(Cl)c45)ncc23)C1` stands > 0.5 µM; under `CN(c1nc(OCC23CCCN2CCC3)nc2c1CCN(c1cccc3ccc(F)c(Cl)c13)C2)[C@@H]1CCN(C#N)C1`, 0.01 to 0.1 µM; under `C=CC(=O)N1CCCC1CN(C)c1nc(OC[C@@]23CCCN2C[C@H](F)C3)nc2c(F)c(-c3cccc4cccc(Cl)c34)ncc12` (stereo partly shown), > 0.5 µM.
The same measure, in the same setting: as for `CN(C)C/C=C/C(=O)N1CC[C@@H](N(C)c2nc(OCC34CCCN3CCC4)nc3c(F)c(-c4cccc5cccc(Cl)c45)ncc23)C1`, the figure is 0.01 to 0.1 µM.
As for `C#Cc1c(F)ccc2cccc(-c3ncc4c(N(C)[C@H]5CCN(C(=O)C=C)C5)nc(OC[C@]56CCCN5C[C@H](F)C6)nc4c3F)c12`, the IC50 is > 0.5 µM.
On the same count and under the same terms, as for `CN(C)C/C=C/S(=O)(=O)CCN(C)c1nc(OC[C@@]23CCCN2C[C@H](F)C3)nc2c1CCN(c1cccc3cccc(Cl)c13)C2`, the figure is < 0.01 µM.
On the same count and under the same terms, under `CN(C)C/C=C/C(=O)N1CC[C@@H](N(C)c2nc(OCC34CCCN3CCC4)nc3c2CCN(c2cccc4ccc(F)c(Cl)c24)C3)C1` stands 0.1 to 0.5 µM.
As to `CCN(C/C=C/S(=O)(=O)CCN(C)c1nc(OCC23CCCN2CCC3)nc2c1CCN(c1cccc3cccc(Cl)c13)C2)CCOC`, the IC50 fell in the range of 0.01 to 0.1 µM.
On the same count and under the same terms, under `C=CC(=O)N1CCC[C@@H](N(C)c2nc(OC[C@@]34CCCN3C[C@H](F)C4)nc3c(F)c(-c4cccc5cccc(Cl)c45)ncc23)C1` stands > 0.5 µM; under `C=CC(=O)N1CC[C@@H](N(C)c2nc(OCC34CCCN3CCC4)nc3c2CCN(c2cccc4ccc(F)c(Cl)c24)C3)C1`, 0.1 to 0.5 µM.
Still for that read-out and setting: under `C=CC(=O)N1CC(CN(C)c2nc(OC[C@@]34CCCN3C[C@H](F)C4)nc3c(F)c(-c4cccc5cccc(Cl)c45)ncc23)C1` stands 0.01 to 0.1 µM; under `C=CC(=O)N1CC[C@@H](N(C)c2nc(OC[C@@]34CCCN3C[C@H](F)C4)nc3c2CCN(c2cccc4ccc(F)c(Cl)c24)C3)C1`, 0.01 to 0.1 µM; under `CN(CCS(=O)(=O)/C=C/CN1CC(F)(F)C1)c1nc(OC[C@@H]2CCCN2C)nc2c(F)c(-c3cccc4cccc(Cl)c34)ncc12`, > 0.5 µM.
Still for that read-out and setting: under `CN(c1nc(OC[C@@]23CCCN2C[C@H](F)C3)nc2c(F)c(-c3cccc4cccc(Cl)c34)ncc12)[C@@H]1CCN(C#N)C1` stands 0.01 to 0.1 µM; under `CN(C)C/C=C/C(=O)N1CC(CN(C)c2nc(OCC34CCCN3CCC4)nc3c2CCN(c2cccc4cccc(Cl)c24)C3)C1`, 0.1 to 0.5 µM; under `CN(c1nc(OCC23CCCN2CCC3)nc2c1CCN(c1cccc3cccc(Cl)c13)C2)[C@@H]1CCN(C(=O)/C=C/CN2CC(F)C2)C1`, 0.01 to 0.1 µM.
Consider `CCN(CC)C/C=C/S(=O)(=O)CCN(C)c1nc(OCC23CCCN2CCC3)nc2c(F)c(-c3cccc4cccc(Cl)c34)ncc12`, for which the IC50 was < 0.01 µM.
As to `COCCN(C)C/C=C/S(=O)(=O)CCN(C)c1nc(OCC23CCCN2CCC3)nc2c(F)c(-c3cccc4cccc(Cl)c34)ncc12`, the IC50 is 0.01 to 0.1 µM.

Source of the values: US20250019387A1 (Frontier Medicines Corporation, priority 0001, published 2025).
